System: mTOR pathway
Experiment: Western blot of P70S6 and pP70S6 in corneal epithelium, disepithelization model (Example 1)
Format: in vivo, mice
Description: Eight-week-old C57BL6/N (Charles River, Calco, Italy) (WT mice, n=8) and B6.Cg-Tac1tm1Bbm/J (Jackson Laboratories, Bar Harbor, Me., USA) (TAC1-KO mice, n=8) male mice were used in all experiments. Each animal was anesthetized with intraperitoneal injection of tribromoethanol (250 mg/kg) and a topical anesthetic was applied to their ocular surface prior to the surgical procedure. Disepithelization was performed based on the model previously described, using a blunt spatula to scrap the entire corneal epithelium from limbus to limbus. After wounding, eyes were treated with ophthalmic moxifloxacin 1 time/day for 1 week to […]. Fourteen days after disepithelization mice were euthanized using carbon dioxide inhalation and subsequent cervical dislocation. Corneas were collected for immunostaining and western blot analysis. All experimental protocols were approved by the Animal Care and Use Committee of the Istituto di Ricovero e cura a Carattere Scientifico San Raffaele Scientific Institute, in accordance with the ARVO Statement for the Use of Animals in Ophthalmic and Vision Research.
To evaluate the pharmacological inhibition of Substance P, an additional group of mice (WT-FOSA, n=6) received Fosaprepitant 10 mg/mL (IVEMEND, Merck Sharp & Dohme Ltd., Hoddes-don, UK) dissolved in a total volume of 10 μL phosphate-buffered saline (PBS, Sigma-Aldrich, St. Louis, Mo., USA) or 10 μL of vehicle as control, topically four times a day in both eyes for 14 days. The treatments started 1 day after corneal dispepithelization.
For Western Blot analysis, corneal epithelium was isolated after 30 minutes of EDTA treatment (Sigma-Aldrich Corp., St. Louis, Mo., USA) at 37° C. […] Bands were quantified using Image Lab™ software (Version 6.0.1, Bio-Rad Laboratories, Hercules, Calif., USA).
The expression of p70 S6 Kinase (P70S6), phospho-p70 S6 Kinase (pP70S6), and phospho-histone 2-AX (γH2AX) was evaluated by Western Blot, as previously described in section 2.9. […] Bands were quantified using Image J software (National Institutes of Health, Bethesda, Md., USA).

With `C[C@@H](O[C@H]1OCCN(Cc2nc(=O)n(P(=O)(O)O)[nH]2)[C@H]1c1ccc(F)cc1)c1cc(C(F)(F)F)cc(C(F)(F)F)c1` [Fosaprepitant, [3-{[(2R,3S)-2-[(1R)-1-[3,5-bis(trifluoromethyl)phenyl]ethoxy]-3-(4-fluorophenyl)morpholin-4-yl]methyl}-5-oxo-2H-1,2,4-triazol-1-yl]phosphonic acid] the “pP70S6 expression compared to WT (in words)” value (Fosaprepitant 10 mg/mL (WT-FOSA), western blot) was “significant decrease”, the “ratio between pP70S6 and P70S6 expression (mTOR pathway activation) compared to WT” value (Fosaprepitant 10 mg/mL topically four times a day for 14 days (WT-FOSA)) was “significant decrease” and the “decrease in pP70S6 expression compared to WT” value (Fosaprepitant 10 mg/mL topically four times a day for 14 days (WT-FOSA), p<0.05) was 38%.

Reference: US20230134843A1, “TREATMENT OF STEM CELL DEFICIENCY” (OSPEDALE SAN RAFFAELE S.R.L., priority 2020, published 2023)
